Data published in patent US20200249573A1, “COMPOSITION FOR RESIST UNDERLAYER FILM FORMATION, UNDERLAYER FILM FOR LITHOGRAPHY, AND PATTERN FORMATION METHOD” (MITSUBISHI GAS CHEMICAL COMPANY, INC., priority 2016, published 2020).

Assay: Solubility of the compound in PGMEA (safe solvent)
Settings: 23° C.; for solubility in PGMEA (amount of dissolution): ultrasonic waves 30 minutes, visual observation
Procedure: The solubility of the obtained compound in propylene glycol monomethyl ether acetate (PGMEA) was measured as the solubility of the compound in a safe solvent. The solubility was evaluated according to the following criteria utilizing the amount of dissolution in PGMEA. The amount of dissolution in PGMEA was measured at 23° C. by precisely weighing the compound into a test tube, adding PGMEA so as to attain a predetermined concentration, applying ultrasonic waves for 30 minutes in an ultrasonic cleaner, then visually observing the subsequent state of the fluid, and conducting evaluation on the basis of the concentration of the amount of complete dissolution.
A: 5.0% by mass<Amount of dissolution
B: 3.0% by mass<Amount of dissolution<5.0% by mass
C: Amount of dissolution<3.0% by mass

| SMILES | solubility in PGMEA, evaluation | solubility in PGMEA (amount of dissolution) [% by mass] |
| --- | --- | --- |
| Oc1ccc([Te](Cl)(Cl)c2ccc(O)cc2)cc1 [BHPT, bis(4-hydroxyphenyl)tellurium dichloride] | A (5.0% by mass<Amount of dissolution) | ≥ 5 |
| CC1(OC(=O)COc2ccc([Te](Cl)(Cl)c3ccc(OCC(=O)OC4(C)C5CC6CC(C5)CC4C6)cc3)cc2)C2CC3CC(C2)CC1C3 (stereo not shown) [BHPT-ADBAC, bis(4-(2-methyl-2-adamantyloxycarbonylmethoxy)phenyl)tellurium dichloride] | A (5.0% by mass<Amount of dissolution) | ≥ 5 |
| CC(C)(C)OC(=O)Oc1ccc([Te](Cl)(Cl)c2ccc(OC(=O)OC(C)(C)C)cc2)cc1 [BHPT-BOC, bis(tert-butoxycarboxyphenyl)tellurium dichloride] | A (5.0% by mass<Amount of dissolution) | ≥ 5 |
| CCOC(C)Oc1ccc([Te](Cl)(Cl)c2ccc(OC(C)OCC)cc2)cc1 (stereo not shown) [BHPT-EE, bis(ethoxyethylphenyl)tellurium dichloride] | A (5.0% by mass<Amount of dissolution) | ≥ 5 |
| Oc1ccc([Te](Cl)(Cl)c2ccc(O)cc2O)cc1 [CCHT, (2,4-dihydroxyphenyl) (4-hydroxyphenyl)tellurium dichloride] | A (5.0% by mass<Amount of dissolution) | ≥ 5 |
| CC1(OC(=O)COc2ccc([Te](Cl)(Cl)c3ccc(OCC(=O)OC4(C)C5CC6CC(C5)CC4C6)cc3OCC(=O)OC3(C)C4CC5CC(C4)CC3C5)cc2)C2CC3CC(C2)CC1C3 (stereo not shown) [CCHT-ADBAC] | A (5.0% by mass<Amount of dissolution) | ≥ 5 |
| Oc1ccc([Te](Cl)(Cl)c2ccc(O)c(-c3ccccc3)c2)cc1-c1ccccc1 [Ph-BHPT, bis(3-phenyl-4-hydroxyphenyl)tellurium dichloride] | A (5.0% by mass<Amount of dissolution) | ≥ 5 |
| CC1(OC(=O)COc2ccc([Te](Cl)(Cl)c3ccc(OCC(=O)OC4(C)C5CC6CC(C5)CC4C6)c(-c4ccccc4)c3)cc2-c2ccccc2)C2CC3CC(C2)CC1C3 (stereo not shown) [Ph-BHPT-ADBAC] | A (5.0% by mass<Amount of dissolution) | ≥ 5 |
| Oc1ccc([Te]c2ccc(O)c(-c3ccccc3)c2)cc1-c1ccccc1 [Ph-TDP, bis(3-phenyl-4-hydroxyphenyl)tellurium] | A (5.0% by mass<Amount of dissolution) | ≥ 5 |
| CC1(OC(=O)COc2ccc([Te]c3ccc(OCC(=O)OC4(C)C5CC6CC(C5)CC4C6)c(-c4ccccc4)c3)cc2-c2ccccc2)C2CC3CC(C2)CC1C3 (stereo not shown) [Ph-TDP-ADBAC] | A (5.0% by mass<Amount of dissolution) | ≥ 5 |
| CC(C)(C)OC(=O)COc1ccc([Te]c2ccc(OCC(=O)OC(C)(C)C)c(-c3ccccc3)c2)cc1-c1ccccc1 [Ph-TDP-BOC] | A (5.0% by mass<Amount of dissolution) | ≥ 5 |
| CCOC(C)Oc1ccc([Te](Cl)(Cl)c2ccc(OC(C)OCC)c(-c3ccccc3)c2)cc1-c1ccccc1 (stereo not shown) [Ph-TDP-EE] | A (5.0% by mass<Amount of dissolution) | ≥ 5 |
| Oc1ccc([Te]c2ccc(O)cc2)cc1 [TDP, 4,4′-telluriumdiphenol] | A (5.0% by mass<Amount of dissolution) | ≥ 5 |
| CC1(OC(=O)COc2ccc([Te]c3ccc(OCC(=O)OC4(C)C5CC6CC(C5)CC4C6)cc3)cc2)C2CC3CC(C2)CC1C3 (stereo not shown) [TDP-ADBAC] | A (5.0% by mass<Amount of dissolution) | ≥ 5 |
